In one experiment the test system is TNF-α. Kind of experiment: LPS-induced TNF-α production in RAW264.7 cells (ELISA). The class given is cell-based, mouse. The settings on record: for reduction in LPS-induced TNF-α production, RAW264.7 cells: omega-3/omega-6 study with DHA EE, EPA EE, SDA EE (toxic amount of SDA EE); for reduction in LPS-induced TNF-α production: study challenging RAW264.7 cells in 3 batches. As for the experimental part: RAW264.7 cells were seeded in 96 well plates at a density of 20,000 cells/well. On day 2, the cells were serum starved for 24 h in DMEM. Then, the cells were pre-treated with 60 μg/ml of Peptylin® alone or in combination with 50 μM or 100 μM NeurXcel® EE diluted in DMEM. Appropriate vehicle controls have been included, i.e. 0.5% EtOH+1.2% H2O. On day 4 the cells were LPS-induced (500 ng/ml) for 1.5 h and the supernatants were collected. A WST-8 assay was performed to measure cell viability and the supernatants were used for an ELISA assay to measure TNF-α levels. All the experiments were carried out with 9 replicates (for control and LPS treated cells) or 24 replicates (for cells treated with NX and/or PT). A t-test was used to compare the media of TNF-α levels between the treatment of NX alone and in combination with PT.
3.4 Experimental procedure RAW264.7 cells were seeded in 96-well plates at a density of 20,000 cells/well in DMEM+10% FBS. The next day, the cells were washed once with DPBS and serum starved for 24 h in 150 μL of DMEM. Then, the cells were treated with 150 μL of 60 μg/ml of Peptylin® and 100 or 50 μM NeurXcel® EE that were used either alone or in combination. Appropriate vehicle controls were also included in the assay, i.e. 0.5% ethanol+1.2% H2O. After 24 h, the cells were incubated for 1.5 h with 10 μL of LPS (7500 ng/ml) to reach a final concentration of 500 ng/ml. After the incubation, the supernatants were collected and a WST-8 assay was carried out. CCK-8 reagent (WST-8) was diluted 1:10 in DMEM media and 100 μL were added to each well and the plate was incubated at 37° C. After 15 minutes the absorbance was measured at 450 nm using the Synergy II microplate reader. WST-8 is bioreduced by cellular dehydrogenases to an orange formazan product that is soluble in tissue culture medium. The amount of formazan produced is directly proportional to the number of living cells. The ELISA assay was performed following the manufacturer's instructions. The TNF-α levels produced under each condition were normalized to the corresponding vehicle control (with or without EtOH). All the experiments were carried out with 9 replicates (for control and LPS treated cells) or 24 replicates (for cells treated with NX and/or PT). […] Using Microsoft Excel the following formula was used to calculate the p-value: =T.TEST (array1, array2, tails, type), where array1 corresponds to the TNF-α values for one treatment, array2 corresponds to TNF-α values for the co-treatment, one-tail test has been considered and type is 2 (two sample equal variance t-test). A p-value of 0.05 was used as the cutoff for significance.
After the treatments, the supernatants were collected and an ELISA assay was performed. First, the standard curve was generated (FIG. 43).
The TNF-α standard was measured in 8 serial 1:2 dilutions ranging from 0-4000 pg/ml. TNF-α production was measured by ELISA. Control: cells maintained in DMEM; LPS: LPS-induced cells in DMEM+0.5% EtOH+1.2% H2O; PT: cells pre-treated with 60 μg/ml of Peptylin® for 24 h; 50 NX and 100 NX: cells treated with 50 or 100 μM NX for 24 h; 50NX+PT and 100NX+PT: cells pre-treated with 50 or 100 μM NX and 60 μg/ml PT for 24 h. Then the cells were induced with 500 ng/ml LPS for 1.5 h. The data represent the mean±SD of an experiment performed in nine replicates (for Cntr and LPS) or 24 replicates (for PT and NX treatments). NS: non-significant; *** p<0.001.
Background: In an ELISA, binding on a coated surface is turned into a signal by an enzyme label.

A further experiment has as its system TNF-alpha. Kind of experiment: LPS-induced TNF-alpha production in BV-2 cells. The class given is cell-based. To be noted: compared with LPS controls.
The test system of experiment [1] is Reactive Oxygen Species (ROS) within SH-SY5Y neuroblastoma cells. In words: H2O2-induced Reactive Oxygen Species generation in SH-SY5Y cells (DCF-DA). The experiment is classed as cell-based, human. To be noted: Example 12. As for the experimental part: Reactive Oxygen Species (ROS) within cells can be quantified by indexing using the fluorescent probe 2′,7′-dichlorofluroescin diacetate (DCF-DA) (Sigma-Aldrich, USA). When oxidized to the reactive oxygen metabolite, the DCF-DA can be excited at 485 nm and releases fluorescence at 530 nm.
SH-SY5Y neuroblastoma cells were incubated with 100 μl of 10% 1-BS/MEM in a 5×10^4 cells/well 96-well plate and cultured 24 hours, as in Example 1. The 10% FBS/MEM was removed and 1% FBS/MEM added to the cells. Composition A, B, C, D, or E was administered, and then DCF-DA in keeping with the DCF-DA assay described above.
After 4 hours, a 0.25 uM solution of H2O2 (a toxicity-inducing substance) was administered. Incubation time was for 2 hours before fluorescence test. Subsequently, fluorescence was measured at 530 nm to assess the level of active oxygen production.
In Examples 8 and 9, SH-SY5Y cells were exposed in separate, parallel models to H2O2 and FeSO4 to induce controlled cell death, but instead of analyzing cell viability in the presence of various active compounds, reactive oxygen species (ROS) generation was measured in the presence of various formulations, following peer-reviewed published methods. […]
Reactive oxygen species generation induced by H2O2 was measured by incubation with a fluorescent probe 2′,7′-dichlorofluorescin diacetate (DCF-DA). […]

The structures appear in SMILES notation.

Turning to `CC/C=C\C/C=C\C/C=C\C/C=C\C/C=C\CCCC(=O)OCC` [EPA EE, eicosapentaenoic acid, ethyl ester], the “reduction in LPS-induced TNF-α production, RAW264.7 cells” value (“reduction … RAW264.7 cells” for short) in the experiment on TNF-α was determined as 32%. Besides, the entries for the “reduction in LPS-induced TNF-alpha production, BV-2 cells” value in the experiment on TNF-alpha (another study), with TNF-alpha (study in which EPA EE gave 25%) and in the experiment with TNF-alpha (third study) were 18%, 25% and 27-33%, respectively.

Turning to `CC/C=C\C/C=C\C/C=C\C/C=C\C/C=C\C/C=C\CCC(=O)OCC` [DHA EE], the “reduction … RAW264.7 cells” value in the experiment on TNF-α is 21-42%.

With `CC(=O)N[C@@H](CS)C(=O)O` [NAC, N-Acetyl-L-cysteine], the “restoration of SH-SY5Y cells (positive control group)” value in experiment [1] is “restored to normal levels”.

In the case of `CCCCC/C=C\C/C=C\C/C=C\CCCCCCC(=O)OCC` [DGLA EE], in the experiment on TNF-α, the “reduction in LPS-induced TNF-α production” value is given as 11-18%.

Take `CC/C=C\C/C=C\C/C=C\C/C=C\CCCCC(=O)OCC` [SDA EE]: in the experiment on TNF-α, the “reduction … RAW264.7 cells” value is reported as 35-71% and the “reduction in LPS-induced TNF-α production” value is 16-24%.

The values are drawn from patent US12194071B2, “Methods and compositions with purified Bombyx mori cocoon silk peptide fiber and refined Buglossoides arvensis seed oil providing anti-inflammatory effects and neuroprotection for disease states” (Brain Health Holding LLC, priority 2019, dated 2025).
